Laboratory results as given in patent publication US6066628A, “Non-iron metalloporphyrins and methods of use” (Emory University, priority 1998, dated 2000).
Read-outs that look alike come from different tables or passages of the source.

Key:
S. pyogenes A = assay: Disc diffusion sensitivity test; assay type: cell-based, Streptococcus pyogenes; details: disc ~50 μg MP
Ps. aeruginosa = assay: Disc diffusion sensitivity test; assay type: cell-based, Pseudomonas aeruginosa; details: disc ~50 μg MP; further: key: -: resistant; N: not determined
S. aureus [1] = assay: Disc diffusion sensitivity test; assay type: cell-based, Staphylococcus aureus
MDCK cells = assay: Toxicity to mammalian cell monolayers; details: 0.5 mg in 1 mL DMEM; 24 hrs
S. crevisieae = assay: Disc diffusion sensitivity test; assay type: cell-based, Saccharomyces cerevisiae; details: S. cerevisiae; disc ~50 μg MP
K. pneumoniae = assay: Disc diffusion sensitivity test; assay type: cell-based, Klebsiella pneumoniae
S. aureus [2] = test system: S. aureus
[3] = test system: methicillin resistant S. aureus IR2419; assay type: cell-based, Staphylococcus aureus; details: 1 μg/ml, below the MIC value
CaCO-2 cells = assay: Toxicity to mammalian cell monolayers; assay type: cell-based; details: 5 to 400 μg/ml; 24 to 48 hours
Description: To test for toxicity of MPs for mammalian cells, semiconfluent monolayers of four cell lines (MRC-5 primary human fibroblasts, Vero cells, MDCK cells and CaCO-2 cells) were incubated for 24 to 48 hours in the presence of 5, 25, 50, 250 and 400 μg/ml of Ga-PPIX dissolved in 0.02 M NaOH.

[4] = test system: Mycobacterium bovis (BCG); assay type: cell-based
P. mirabills = assay: Disc diffusion sensitivity test; assay type: cell-based, Proteus mirabilis
E. faecalis = assay: Disc diffusion sensitivity test; assay type: cell-based, Enterococcus faecalis; details: disc ~50 μg MP; further: key: -: resistant; N: not determined
Neisseria meningitidis = assay: Minimal inhibitory concentration; assay type: cell-based
Y. enterocolitica [5] = assay: Disc diffusion sensitivity test; assay type: cell-based; details: disc ~50 μg MP
M. smegmatis [6] = assay: Minimal bactericidal concentration; assay type: cell-based, Mycobacterium smegmatis; details: reduces plating efficiency more than 99.9%; minimal exposure to light
L. monocytogenes = assay: Minimal inhibitory concentration; assay type: cell-based; details: 20 to 24 hours (Table 5)
bacteria = assay type: cell-based
S. aureus [7] = assay type: cell-based, Staphylococcus aureus
S. aureus [8] = assay: Minimal bactericidal concentration; assay type: cell-based, Staphylococcus aureus; details: reduces plating efficiency more than 99.9%; minimal exposure to light
How it was run: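 Bacteria exposed to porphyrin derivatives above MIC as in the MIC assay, then plated on LB or LB+Tween 80 agar. MBC taken as the concentration reducing plating efficiency by more than 99.9%; light exposure kept minimal.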

S. marcescens = assay: Disc diffusion sensitivity test; assay type: cell-based, Serratia marcescens
Staphylococcus carnosus = assay: Disc diffusion sensitivity test; assay type: cell-based; details: 50 μg disc
N. gonorrhoeae = assay: Minimal inhibitory concentration; assay type: cell-based, Neisseria gonorrhoeae; details: N. gonorrhoeae MS111; 20 to 24 hours (Table 5)
M. smegmatis [9] = assay type: cell-based, Mycobacterium smegmatis
Y. enterocolitica [10] = assay: Minimal bactericidal concentration; assay type: cell-based; details: reduces plating efficiency more than 99.9%; minimal exposure to light
H. pylori ATCC 43504 = assay: Minimal inhibitory concentration; assay type: cell-based, Helicobacter pylori; details: H. pylori ATCC 43504 (Table 5)
N. meningitidis = assay: Disc diffusion sensitivity test; assay type: cell-based; details: disc ~50 μg MP
Y. pseudotuberculosis = assay type: cell-based
M. smegmatis [11] = test system: M. smegmatis
E. coli = assay: Disc diffusion sensitivity test; assay type: cell-based, Escherichia coli
F. menigosepticum = assay: Disc diffusion sensitivity test; assay type: cell-based, Flavobacterium meningosepticum
[12] = test system: Y. enterocolitica fur (H1852); assay type: cell-based; details: 1 μg/ml
Staphylococcus xylolus = assay: Disc diffusion sensitivity test; assay type: cell-based; details: 50 μg disc

C=CC1=C(C)C2=Cc3c(C=C)c(C)c4[n]3[Ga][n]3c(c(C)c(CCC(=O)O)c3=CC3=NC(=C4)C(C)=C3CCC(=O)O)=CC1=N2 [Ga-PPIX, Gallium (III) protoporphyrin IX chloride]
diameter (mm) of the inhibition zone (S. pyogenes A): -
diameter (mm) of the inhibition zone (Ps. aeruginosa): -
diameter (mm) of the inhibition zone (S. aureus [1]; S. aureus, disc ~50 μg MP): 22 mm
sensitive strains / strains tested (inhibition zones larger or equal 20 mm) (S. aureus [1]; Staphylococcus aureus, 50 μg disc): 9/9
cytotoxic and/or morphological changes (MDCK cells): No visible cytotoxic and/or morphological changes were observed
diameter (mm) of the inhibition zone (S. crevisieae): -
diameter (mm) of the inhibition zone (K. pneumoniae; K. pneumoniae, disc ~50 μg MP): 22 mm
sensitive strains / strains tested (inhibition zones larger or equal 20 mm) (K. pneumoniae; Klebsiella pneumoniae, 50 μg disc): 9/13
spontaneous resistance (S. aureus [2]): did not produce spontaneous resistant mutants
growth in presence of Ga-PPIX [3]: inhibited growth of S. aureus in the first 20 hours of growth
sensitivity (preliminary experiments) (M. avium; M. avium): sensitive
MIC (M. avium; M. avium ATCC15769 (Table 5)): 1 µg/mL
detachment or rounding of cells (CaCO-2 cells): No detachment or rounding of cells was noticed
MIC ([4]; M. bovis (BCG) (Table 4)): 0.4 µg/mL
MIC ([4]; M. bovis (BCG), two weeks (Table 5)): 0.4 µg/mL
diameter (mm) of the inhibition zone (P. mirabills; P. mirabilis, disc ~50 μg MP): 21 mm
sensitive strains / strains tested (inhibition zones larger or equal 20 mm) (P. mirabills; Proteus mirabilis, 50 μg disc): 2/2
diameter (mm) of the inhibition zone (E. faecalis): -
MIC (Neisseria meningitidis; N. meningitidis IR1072, 20 to 24 hours (Table 5)): 0.1 µg/mL
MIC (Neisseria meningitidis; Neisseria meningitidis (Table 4)): < 0.1 µg/mL
diameter (mm) of the inhibition zone (Y. enterocolitica [5]): 28 mm
Minimal bactericidal concentration (MBC) (M. smegmatis [6]): 10
MIC (L. monocytogenes): 0.2 µg/mL
antibacterial activity (bacteria): widest spectrum and the highest level of antibacterial activity
MIC in Muller-Hinton broth versus NB broth (S. aureus [7]; Muller-Hinton broth): did not differ significantly
lower MIC in low iron media (S. aureus [7]; NBD with 0.1 mM dipyridyl): 2 fold
MIC (S. aureus [7]; S. aureus 8325-4 (Table 4)): < 0.1 µg/mL
MIC (S. aureus [7]; S. aureus 8325-4 (Table 6), in µg/mL): 1-2
MIC (S. aureus [7]; S. aureus 8325-4, 20 to 24 hours (Table 5)): 1 to 2 µg/mL
MIC (S. aureus [7]; S. aureus IR2419, dark (Table 10)): 1.6 µg/mL
Minimal inhibitory concentration (MIC) (S. aureus [7]; methicillin-resistant S. aureus IR219, Nutrient broth (Table 2)): 1.6 µg/mL
Minimal bactericidal concentration (MBC) (S. aureus [8]): > 13
diameter (mm) of the inhibition zone (S. marcescens; S. marcescens, disc ~50 μg MP): 23 mm
sensitive strains / strains tested (inhibition zones larger or equal 20 mm) (S. marcescens; Serratia marcescens, 50 μg disc): 2/3
sensitive strains / strains tested (inhibition zones larger or equal 20 mm) (Staphylococcus carnosus): 1/1
MIC (N. gonorrhoeae): 0.1 µg/mL
spontaneous resistance (Gram-negative bacteria): gave rise to spontaneous resistant colonies
lower MIC in low iron media (M. smegmatis [9]; LB+0.2 mM Desferal): 2 fold
antibacterial activity (M. smegmatis [9]; M. smegmatis): inhibitory
MIC (M. smegmatis [9]; M. smegmatis LR222 (Table 4)): 0.5 µg/mL
Minimal inhibitory concentration (MIC) (M. smegmatis [9]; M. smegmatis LR222, LB + Tween 80 (Table 2)): 0.4 µg/mL
MIC (M. smegmatis [9]; M. smegmatis LR222, dark (Table 10)): 0.4 µg/mL
Minimal bactericidal concentration (MBC) (Y. enterocolitica [10]): 6.4
MIC (H. pylori ATCC 43504): 0.2 µg/mL
diameter (mm) of the inhibition zone (N. meningitidis): 24 mm
MIC (Y. pseudotuberculosis; Y. pseudotuberculosis YP66 (Table 4)): < 0.1 µg/mL
MIC (Y. pseudotuberculosis; Y. pseudotuberculosis YP66 (Table 6), in µg/mL): 0.2-0.4
spontaneous resistance (M. smegmatis [11]): did not produce spontaneous resistant mutants
diameter (mm) of the inhibition zone (E. coli; E. coli, disc ~50 μg MP): 24 mm
sensitive strains / strains tested (inhibition zones larger or equal 20 mm) (E. coli; Escherichia coli, 50 μg disc): 16/18
diameter (mm) of the inhibition zone (F. menigosepticum; F. meningosepticum, disc ~50 μg MP): 22 mm
sensitive strains / strains tested (inhibition zones larger or equal 20 mm) (F. menigosepticum; Flavobacterium meningosepticum, 50 μg disc): 1/1
growth in presence of Ga-PPIX [12]: completely prevented growth
sensitive strains / strains tested (inhibition zones larger or equal 20 mm) (Staphylococcus xylolus): 1/1
